Reference: ChEMBL document CHEMBL1157956, “Aegicerin, the first oleanane triterpene with wide-ranging antimycobacterial activity, isolated from Clavija procera” (J Nat Prod, 2006)
In brackets after ≈: the same amount, converted by molar mass.

Legend:
[1] = system: Mycobacterium tuberculosis; assay: Antimicrobial activity against Mycobacterium tuberculosis H37Rv by alamar blue assay; format: functional
[2] = system: Mycobacterium tuberculosis; assay: Antimicrobial activity against drug-susceptible Mycobacterium tuberculosis isolate by alamar blue assay; format: functional
[3] = Cytotoxicity against african green monkey Vero cells; format: cell-based; conditions: chlorocebus sabaeus

## NNC(=O)c1ccncc1 [ISONIAZID]
[1]
  MIC: 0.125 µg/mL (≈ 0.911 µM)
[2]
  MIC: 0.125 µg/mL (≈ 0.911 µM)

## CC1(C)CC[C@]23CO[C@@]4(CC[C@@H]5[C@@]6(C)CC[C@H](O)C(C)(C)[C@@H]6CC[C@@]5(C)[C@]4(C)C[C@H]2O)[C@@H]3C1 [PROTOPRIMULAGENIN A]
[1]
  MIC: 200 µg/mL (≈ 436 µM)
[2]
  MIC: 200 µg/mL (≈ 436 µM)

## CO[C@H]1/C=C/O[C@@]2(C)Oc3c(C)c(O)c4c(O)c(c(/C=N/N5CCN(C)CC5)c(O)c4c3C2=O)NC(=O)/C(C)=C\C=C\[C@H](C)[C@H](O)[C@@H](C)[C@@H](O)[C@@H](C)[C@H](OC(C)=O)[C@@H]1C [RIFAMPIN]
[1]
  MIC: 0.063 µg/mL (≈ 0.0766 µM)
[2]
  MIC: 0.063 µg/mL (≈ 0.0766 µM)

## CC1(C)CC[C@]23CO[C@@]4(CC[C@@H]5[C@@]6(C)CC[C@H](O)C(C)(C)[C@@H]6CC[C@@]5(C)[C@]4(C)CC2=O)[C@@H]3C1 [AEGICERIN]
[1]
  MIC: 3.1 µg/mL (≈ 6.79 µM)
[2]
  MIC: 1.6 µg/mL (≈ 3.5 µM)
[3]
  GI50: > 40 µg/mL
